Structures are written as SMILES.

Usually Kd stands for a measure of binding affinity in units of concentration. Low values mean higher affinity, high ones lower affinity.

The target of this assay is Quinolone signal response protein (Pseudomonas aeruginosa, UniProt A0A072ZMX8). Nature of the assay: Isothermal Titration Calorimetry (ITC). Particulars: 14 °C. The protocol:
ITC titrations were performed using an ITC200 instrument (Microcal Inc.,Malvern). DMSO stock solutions (20 mM) of fragments were diluted 1:20 (v/v) into ITC titration buffer (50 mM tricine, 2 mM MnCl2, pH = 8.5) to give a 1 mM final compound concentration at 5% (v/v) DMSO. Aliquots of the same buffer batch (stored at […]) were used as for protein storage to avoid a buffer mismatch. H6PqsE was diluted in the same buffer to 100 μM, and DMSO concentration was adjusted to 5% (v/v). Titrations were carried out at 298 K using 19 injections of 2 μL every 180 s. Areas under the peaks were integrated. Baseline peaks at the endof a titration accounting for the heat of dilution and mixing were subtracted from the measurement. Data were fitted to a 1:1 binding model (MicroCal Origin 7 software).
For orientation: In ITC the heat of successive injections is recorded.

Quinolone signal response protein, sequence (A0A072ZMX8 whole entry, the tested form may be a part): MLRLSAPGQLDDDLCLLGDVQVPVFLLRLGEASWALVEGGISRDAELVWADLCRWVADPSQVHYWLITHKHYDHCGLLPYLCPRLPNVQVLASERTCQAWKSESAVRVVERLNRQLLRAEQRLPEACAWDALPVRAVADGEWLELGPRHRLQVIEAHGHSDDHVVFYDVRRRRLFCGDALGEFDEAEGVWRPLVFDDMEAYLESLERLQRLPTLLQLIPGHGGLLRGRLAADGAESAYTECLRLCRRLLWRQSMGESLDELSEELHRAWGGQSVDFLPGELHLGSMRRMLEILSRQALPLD

In turn, `Cc1ccsc1C(=O)O` [AC30341 (3)] had an equilibrium dissociation constant (Kd) of 19.6 µM.
Take `O=C(O)c1ccccc1-c1cccnc1` [CC41801 (1)]: the affinity, expressed as Kd, was 0.9 µM.
